# Results published in patent US20190308956A1, “PIPERAZINE DERIVATIVES AS ANTIVIRAL AGENTS WITH INCREASED THERAPEUTIC ACTIVITY” (SERVICIO ANDALUZ DE SALUD, priority 2016, published 2019).
# Legend:
# [1] = tested on: HAdV5-GFP; assay: Plaque assay, HAdV5-GFP in 293β5 cells; format: cell-based; conditions: for inhibition at 10 µM: read-out: Percentage of plaque formation inhibition, HAdV5-GFP, 10 μM, 293β5 cell line
# Method: 1.5. Plaque assay. For low MOI infections, active compounds were further evaluated in a plaque assay. 293β5 cells were seeded in 6-well plates at 4×10^5 cells per well in duplicate for each condition. When cells reached 80-90% confluency, they were infected with HAdV5-GFP or HAdV16-GFP (0.06 vp/cell) and rocked for 2 h at 37° C. The inoculum was removed and the cells were washed once with PBS. The cells were then carefully overlaid with 4 ml/well of equal parts of 1.6% […] Difco Agar Noble (Becton, Dickinson & Co, Sparks, MD) and 2× EMEM (BioWhittaker) supplemented with 2x penicillin/streptomycin, 2× L-glutamine and 10% FBS. The mixture also contained compound in concentrations ranging from 5 to 1 μM. Following incubation for 7 days at 37° C., plates were scanned with a Typhoon 9410 imager (GE Healthcare Life Sciences), and plaques were quantified with ImageJ.43
# For the plaque assay 293β5 cells were infected with HAdV5-GFP (in the presence of compound at 10 μM) (Table 2). From this generation of compounds, our primary screening identified 4 compounds (12, 13, 22 and 25) that inhibited HAdV5-GFP plaque formation >90% compared to a control with the same volume of DMSO.
# [2] = Cytotoxicity assay (alamarBlue cell viability); format: cell-based, Human; conditions: human, A549 cells
# Method: (§1) 1.4. Cytotoxicity assay. The cytotoxicity of the compounds was measured using the AlarmBlue cell viability assay (Invitrogen) according to the manufacturer's instructions. Actively dividing A549 cells were incubated with compounds for 48 h. After the incubation the alamarBlue reagent was added to the cells ( 1/10th alamarBlue reagent in culture medium) for an extra 4 h. The 50% cell cytotoxic concentration (CC50) of the molecules was calculated according to Cheng et al.42 The selectivity index (SI) was evaluated as the ratio of CC50 to IC50, where the IC50 is defined as the concentration of compound that inhibits HAdV infection by 50%.
# [3] = tested on: HAdV5-GFP; assay: Entry assay, HAdV5-GFP in A549 cells (GFP expression); format: cell-based
# Method: 1.3. Entry assay. An initial rapid screening was performed using human A549 epithelial cells (3×10^5 cells/well in Corning black wall, clear bottom 96-well plates) infected with HAdV5-GFP (2,000 vp/cell) in the presence of 50 μM of the candidate antiviral compounds. Virus was preincubated with the compounds (individual and mixed) for 45 minutes at 4° C., and then added to cells. A standard infection curve was generated in parallel by infecting cells in the absence of compounds using serial two-fold dilutions of virus. All reactions were done in triplicate. Cells, virus and compounds were incubated for 48 h at 37° C. and 5% CO2. Infection, as measured by HAdV-mediated GFP expression, was analyzed using a Typhoon 9410 imager (GE Healthcare Life Sciences), and quantified with ImageQuantTL (GE Healthcare Life Sciences).
# [4] = tested on: A549 cells; assay: Cytotoxicity assay (alamarBlue cell viability); format: cell-based, Human
# Method: as §1
# [5] = tested on: Acinetobacter baumannii strains resistant to colistine; assay: Screening of inhibition of bacterial growth at 50 μM; format: cell-based; conditions: 5×10^5 CFU/ml, 18 h; for Screening, growth inhibition Ab 11: strain Ab 11, 50 μM; for Screening, growth inhibition Ab 14: strain Ab 14, 50 μM; for Screening, growth inhibition Ab 17: strain Ab 17, 50 μM; for Screening, growth inhibition Ab 21R: strain Ab 21R; for Screening, growth inhibition Ab 21R / Screening, growth inhibition Ab 22P: 50 μM; for Screening, growth inhibition Ab 22P: strain Ab 22P; for Screening, growth inhibition Ab 24: strain Ab 24, 50 μM
# From the text: (§2) All of the strains used were Acinetobacter baumannii strains resistant to colistine: Resistance (R)≥4 Sensibility (S)≤2—All of these strains have been disclosed in Valencia R, Arroyo L A, Conde M, Aldana J M, Torres M J, Fernandez-Cuenca F, et al. Nosocomial outbreak of infection with pan-drug-resistant Acinetobacter baumannii in a tertiary care university hospital. Infection control and hospital epidemiology. 2009; 30(3):257-63. The specific strains used were the following: 1, 10, 11, 14, 16, 17, 19, 20, 21R, 22P, 24, 99 and 113.
# Evaluation of the inhibition of the bacterial growth of the 4 families of piperazines derivatives was performed by using a final concentration of 50 μM of each piperazine derivative in a concentration of 5×10^5 CFU/ml of each strain of A. baumannii in 96-well plates.
# These plates were incubated for 18 hours at 37° C.
# [6] = tested on: Acinetobacter baumannii strains resistant to colistine; assay: Minimal inhibitory concentration (MIC), microdilution in MHBII; format: cell-based; conditions: 5×10^5 CFU/ml, 18 h; for CMI (MIC) Ab 11: strain Ab 11, MHBII; for CMI (MIC) Ab 14: strain Ab 14, MHBII; for CMI (MIC) Ab 17: strain Ab 17, MHBII; for CMI (MIC) Ab 21R: strain Ab 21R; for CMI (MIC) Ab 21R / CMI (MIC) Ab 22P: MHBII; for CMI (MIC) Ab 22P: strain Ab 22P; for CMI (MIC) Ab 24: strain Ab 24, MHBII
# From the text: as §2
# Microdilution in cell medium Mueller Hinton Broth II (MHBII). This technique was carried out solely in those piperazines which presented inhibitory activity in the screening study.
# We used decreasing concentrations of each piperazine derivative (from 50 μM -0.05 μM) in a concentration of 5×10^5 CFU/ml of each strain of A. baumannii in 96 well plates. These plates were incubated for 18 hours at a temperature 37° C.
SMILES,inhibition at 10 µM [1] [%],CC50 at 48 h [2] [µM],CC50 at 48 h ([2]; 48 h) [µM],melting point [°C],Inhibition assay in plaque [1],Starting Inhibition assay [3],CC50 [4] [µM],"Screening, growth inhibition Ab 11 [5] [µM]","Screening, growth inhibition Ab 14 [5] [µM]","Screening, growth inhibition Ab 17 [5] [µM]","Screening, growth inhibition Ab 21R [5] [µM]","Screening, growth inhibition Ab 22P [5] [µM]","Screening, growth inhibition Ab 24 [5] [µM]",CMI (MIC) Ab 11 [6] [µM],CMI (MIC) Ab 14 [6] [µM],CMI (MIC) Ab 17 [6] [µM],CMI (MIC) Ab 21R [6] [µM],CMI (MIC) Ab 22P [6] [µM],CMI (MIC) Ab 24 [6] [µM]
"CC1CN(C(=O)c2cc3ccccc3o2)CCN1C(=O)Nc1ccc(F)cc1 (stereo not drawn) [Compound 35, 4-(Benzofuran-2-carbonyl)-1-[(4-fluorophenyl)aminocarbonyl]-2-methylpiperazine]",91 to 100,> 200,221 ± 29,93 to 95,,,,,,,,,,,,,,,
"CC(C)(C)C(=O)N1CCN(C(=O)Nc2ccc(C#N)cc2)C(c2ccccc2)C1 (stereo not drawn) [Compound 57, 1-[(4-Cyanophenyl)aminocarbonyl]-2-phenyl-4-pivaloylpiperazine]",84 ± 6.75,,147 ± 38,151 to 153,,,,,,,,,,,,,,,
"COc1ccc(NC(=O)N2CCN(C(=O)C(C)(C)C)CC2c2ccccc2)cc1 (stereo not drawn) [Compound 58, 1-[(4-Methoxyphenyl)aminocarbonyl]-2-phenyl-4-pivaloylpiperazine]",70.1 ± 2.7,,199 ± 33.6,62 to 65,,,,,,,,,,,,,,,
"O=C(c1cc2ccccc2o1)N1CCN(C(=O)Nc2ccc(C(F)(F)F)cc2)C(c2ccccc2)C1 (stereo not drawn) [Compound 61, 4-(Benzofuran-2-carbonyl)-2-phenyl-1-[(4-trifluoromethylphenyl)aminocarbonyl]piperazine]",100,,70.7 ± 21.4,134 to 136,,,,,,,,,,,,,,,
"O=C(c1cc2ccccc2o1)N1CCN(C(=O)Nc2ccc(F)cc2)C(c2ccccc2)C1 (stereo not drawn) [Compound 62, 4-(Benzofuran-2-carbonyl)-1-[(4-fluorophenyl)aminocarbonyl]-2-phenylpiperazine]",98.81 ± 0.15,,12.5 ± 0.79,122 to 124,,,,,,,,,,,,,,,
CC1CN(C(=O)OC(C)(C)C)CCN1C(=S)Nc1ccc(Cl)cc1 (stereo not drawn) [Vip 580],,,,,73.43 ± 4.19,64.11 ± 16.81,167,<50,<50,<50,<50,<50,<50,50,50,50,50,50,50
CC1CN(C(=O)OC(C)(C)C)CCN1C(=S)Nc1ccc(C#N)cc1 (stereo not drawn) [Vip 584],,,,,88.91 ± 15.92,58.11 ± 25.72,175,<50,<50,<50,<50,<50,<50,50,50,25,50,50,50
COc1ccc(NC(=S)N2CCN(C(=O)OC(C)(C)C)CC2C)cc1 (stereo not drawn) [Vip 590],,,,,36.55 ± 30.13,62.79 ± 17.03,,,<50,,,,,,>50,,,,
Cc1ccc(NC(=S)N2CCN(C(=O)OC(C)(C)C)CC2C)cc1 (stereo not drawn) [Vip 591],,,,,49.11 ± 4.73,56.61 ± 17.69,,,<50,<50,<50,,,,>50,50,50,,
CC1CN(C(=O)OC(C)(C)C)CCN1C(=S)Nc1cc(C(F)(F)F)cc(C(F)(F)F)c1 (stereo not drawn) [Vip 592],,,,,11.11 ± 19.25,71.76 ± 15.00,,,<50,,,,,,3.12,,,,
CC1CN(C(=O)OC(C)(C)C)CCN1C(=S)Nc1ccc(C(F)(F)F)cc1 (stereo not drawn) [Vip 604],,,,,73.43 ± 22.49,43.24 ± 17.18,,,,,<50,<50,<50,,,,25,25,25
CC1CN(C(=O)Cc2ccccc2)CCN1C(=S)Nc1ccc(Cl)cc1 (stereo not drawn) [Vip 629],,,,,84.56 ± 15.72,59.51 ± 17.45,175,<50,<50,<50,<50,,<50,25,25,25,50,,50
CC1CN(C(=O)Cc2ccccc2)CCN1C(=S)Nc1ccc(C(F)(F)F)cc1 (stereo not drawn) [Vip 633],,,,,45.36 ± 16.56,43.12 ± 17.16,,<50,,<50,,,<50,25,,25,,,50
Cc1ccc(NC(=S)N2CCN(C(=O)Cc3ccccc3)CC2C)cc1 (stereo not drawn) [Vip 636],,,,,13.79 ± 25.70,73.72 ± 14.39,,<50,,<50,<50,,<50,50,,25,25,,50
COc1ccc(NC(=S)N2CCN(C(=O)Cc3ccccc3)CC2C)cc1 (stereo not drawn) [Vip 637],,,,,29.36 ± 36.56,61.99 ± 17.15,,,,<50,,,<50,,,50,,,>50
CC1CN(C(=O)Cc2ccccc2)CCN1C(=S)Nc1ccc(F)cc1 (stereo not drawn) [Vip 638],,,,,28.90 ± 23.21,72.06 ± 14.91,,,,,,,<50,,,,,,50
